Source: ChEMBL document CHEMBL5150063, “Discovery of Orally Bioavailable N-Benzylpiperidinol Derivatives as Potent and Selective USP7 Inhibitors with In Vivo Antitumor Immunity Activity against Colon Cancer” (J Med Chem, 2022)
The source made the active and inactive calls. The calls are words filed in the database; no cut-off is given here.

Experiments:
MC-38 [1] = test: Antitumor activity against mouse MC38 cells allografted in C57BL/6J mouse assessed as tumor growth inhibition at 100 mg/kg, po administered once daily for 21 days; format: functional; details: MC-38, 504 h, time 21 day, read-out: TGI
MC-38 [2] = test: Antitumor activity against mouse MC38 cells allografted in C57BL/6J mouse assessed as increase in IL-2 level at 100 mg/kg, po administered daily for 20 days by ELISA; format: functional, organism-based; details: time 20.0 day
[3] = target: T1, Ubiquitin carboxyl-terminal hydrolase 7 (Homo sapiens, UniProt Q93009); test: Binding affinity to human USP7 (208 to 560 residues) by SPR method
MC-38 [4] = test: Antitumor activity against mouse MC38 cells allografted in C57BL/6J mouse assessed as increase in INFalpha level at 100 mg/kg, po administered daily for 20 days by ELISA; format: functional, organism-based; details: time 20.0 day
MC-38 [5] = test: Antitumor activity against mouse MC38 cells allografted in C57BL/6J mouse assessed as upregulation of NKT-cells in CD45+ cells at 20 mg/kg, po administered daily for 20 days (reference value: […]); format: functional; details: time 20 day
MC-38 [6] = test: Antitumor activity against mouse MC38 cells allografted in C57BL/6J mouse assessed as decrease in M2 cells at 20 mg/kg, po administered daily for 20 days; format: functional, organism-based; details: time 20.0 day
MC-38 [7] = test: Antitumor activity against mouse MC38 cells allografted in C57BL/6J mouse assessed as tumor growth inhibition at 20 mg/kg, po administered once daily for 21 days; format: functional; details: MC-38, 504 h, time 21 day, read-out: TGI
MC-38 [8] = test: Antitumor activity against mouse MC38 cells allografted in C57BL/6J mouse assessed as increase in TNFalpha level at 20 mg/kg, po administered daily for 20 days by ELISA (reference value: […]); format: functional; details: time 20 day
MC-38 [9] = test: Antitumor activity against mouse MC38 cells allografted in C57BL/6J mouse assessed as upregulation of NKT-cells in CD45+ cells at 100 mg/kg, po administered daily for 20 days (reference value: […]); format: functional; details: time 20 day
MC-38 [10] = test: Antitumor activity against mouse MC38 cells allografted in po dosed C57BL/6J mouse assessed as reduction in tumor growth administered once daily for 21 days; format: functional, organism-based; details: time 21.0 day, DDE = dose-dependent effect
[11] = target: T1, Ubiquitin carboxyl-terminal hydrolase 7; test: Inhibition of full-length USP7 (unknown origin) using ubiquitin-rhodamine 110 as substrate preincubated for 30 mins followed by substrate addition and measured after 2 hrs by microplate spectrophotometer analysis
MC-38 [12] = test: Antitumor activity against mouse MC38 cells allografted in C57BL/6J mouse assessed as upregulation of NK-cells in CD45+ cells at 100 mg/kg, po administered daily for 20 days (reference value: 3.7%); format: functional; details: time 20 day
MC-38 [13] = test: Antitumor activity against mouse MC38 cells allografted in C57BL/6J mouse assessed as increase in TNFalpha level at 100 mg/kg, po administered daily for 20 days by ELISA (reference value: […]); format: functional; details: time 20 day
MC-38 [14] = test: Antitumor activity against mouse MC38 cells allografted in C57BL/6J mouse assessed as increase in M1 cells at 20 mg/kg, po administered daily for 20 days; format: functional, organism-based; details: time 20.0 day
MC-38 [15] = test: Antitumor activity against mouse MC38 cells allografted in C57BL/6J mouse assessed as downregulation of MDCS in CD45+ […] at 100 mg/kg, po administered daily for 20 days (reference value: 27.9%); format: functional; details: time 20 day
MC-38 [16] = test: Antitumor activity against mouse MC38 cells allografted in C57BL/6J mouse assessed as upregulation of CD8+ T-cells in T-lymphocytes at 100 mg/kg, po administered daily for 20 days (reference value: 5.2%); format: functional; details: time 20 day
MC-38 [17] = test: Antitumor activity against mouse MC38 cells allografted in C57BL/6J mouse assessed as decrease in spleen index at 20 to 100 mg/kg, po administered daily for 20 days; format: functional, organism-based; details: dose 20-100 mg/kg, time 20.0 day
MC-38 [18] = test: Antitumor activity against mouse MC38 cells allografted in C57BL/6J mouse assessed as downregulation of Treg in CD4+ T-cells at 100 mg/kg, po administered daily for 20 days (reference value: 10.1%); format: functional; details: time 20 day
MC-38 [19] = test: Antitumor activity against mouse MC38 cells allografted in C57BL/6J mouse assessed as increase in ratio of M1 to M2 cells at 20 mg/kg, po administered daily for 20 days; format: functional, organism-based; details: time 20.0 day
MC-38 [20] = test: Antitumor activity against mouse MC38 cells allografted in C57BL/6J mouse assessed as upregulation of NK-cells in CD45+ cells at 20 mg/kg, po administered daily for 20 days (reference value: 3.7%); format: functional; details: time 20 day

T1 sequence (Q93009 whole entry, the tested form may be a part): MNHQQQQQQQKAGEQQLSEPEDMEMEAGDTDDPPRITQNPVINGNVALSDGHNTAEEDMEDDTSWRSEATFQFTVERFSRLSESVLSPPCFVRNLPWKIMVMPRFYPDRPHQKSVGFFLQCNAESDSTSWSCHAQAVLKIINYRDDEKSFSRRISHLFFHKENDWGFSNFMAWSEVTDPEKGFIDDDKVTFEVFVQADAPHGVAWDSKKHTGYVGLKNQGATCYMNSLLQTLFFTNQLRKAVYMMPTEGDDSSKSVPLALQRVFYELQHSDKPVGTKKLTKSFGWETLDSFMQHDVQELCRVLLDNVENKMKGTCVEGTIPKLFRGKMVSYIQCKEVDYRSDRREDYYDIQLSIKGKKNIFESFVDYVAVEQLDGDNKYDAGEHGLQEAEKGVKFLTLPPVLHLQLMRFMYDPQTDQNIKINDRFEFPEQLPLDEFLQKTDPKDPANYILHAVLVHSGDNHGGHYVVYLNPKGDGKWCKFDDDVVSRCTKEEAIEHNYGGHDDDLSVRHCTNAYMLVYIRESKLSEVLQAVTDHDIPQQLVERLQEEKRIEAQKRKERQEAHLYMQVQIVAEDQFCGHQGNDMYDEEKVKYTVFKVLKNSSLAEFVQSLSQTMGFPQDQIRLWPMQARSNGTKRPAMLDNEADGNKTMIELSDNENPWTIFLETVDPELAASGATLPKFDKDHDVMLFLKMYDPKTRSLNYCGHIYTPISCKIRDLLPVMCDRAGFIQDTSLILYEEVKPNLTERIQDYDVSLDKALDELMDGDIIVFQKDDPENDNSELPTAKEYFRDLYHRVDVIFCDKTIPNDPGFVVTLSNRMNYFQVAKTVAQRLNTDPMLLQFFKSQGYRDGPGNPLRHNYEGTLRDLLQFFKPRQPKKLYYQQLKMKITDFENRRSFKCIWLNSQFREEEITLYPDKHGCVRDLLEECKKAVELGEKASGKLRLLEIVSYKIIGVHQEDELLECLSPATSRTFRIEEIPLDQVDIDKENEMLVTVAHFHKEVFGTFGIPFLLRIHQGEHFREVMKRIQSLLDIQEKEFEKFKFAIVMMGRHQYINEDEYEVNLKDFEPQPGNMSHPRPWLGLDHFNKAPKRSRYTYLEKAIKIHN

Kd [3]: 541 nM | IC50 [11]: 64.5 nM
SMILES: Cn1nc2c(=O)n(CC3(O)CCN(Cc4ccc(-c5ccco5)cc4Cl)CC3)cnc2c1-c1ccc(F)cc1
inhibition in vivo at 100 mg/kg (MC-38 [1]): 74.2% | Activity (MC-38 [2]): Active | Activity (MC-38 [4]): Active | Activity (MC-38 [5]): 9.8% | Activity (MC-38 [6]): Active | inhibition in vivo at 20 mg/kg (MC-38 [7]): 36.6% | Activity (MC-38 [8]): 2.66 pg/mL | Activity (MC-38 [9]): 18% | Activity (MC-38 [10]): Dde | Activity (MC-38 [12]): 12.2% | Activity (MC-38 [13]): 2.79 pg/mL | Activity (MC-38 [14]): Active | Activity (MC-38 [15]): 11.4% | Activity (MC-38 [16]): 9.9% | Activity (MC-38 [17]): Active | Activity (MC-38 [18]): 5.8% | Activity (MC-38 [19]): Active | Activity (MC-38 [20]): 7.5%
